{"source": "paper PMC11394972", "about": "(International Journal of Molecular Sciences, 2024)", "molecules": {"B1": {"name": "MazE-mt3: full-length antitoxin of the M. tb MazEF-mt3 toxin–antitoxin pair, recombinantly expressed (protein)", "chain": "MKTAISLPDETFDRVSRRASELGMSRSEFFTKAAQRYLHELDAQLLTGQIDRALESIHGTDEAEALAVANAYRVLETMDDEW", "modifications": "left off: His tag, end not stated, state not stated", "notes": "full-length antitoxin of the M. tb MazEF-mt3 toxin–antitoxin pair, recombinantly expressed"}}, "tested_on": "MazF-mt3", "type": "biochemical, Mycobacterium tuberculosis", "conditions": "FAM-labeled 13-nt RNA substrate, 37 °C, 30 min"}
{"molecule": "MazE-mt3 α3–α4: peptide corresponding to the last two helices (α3-α4, Leu46-Trp82) of MazE-mt3; cocrystallized with MazF-mt3 (PDB 8ZWS) (LTGQIDRALESIHGTDEAEALAVANAYRVLETMDDEW)", "values": [{"measurement": "reduction of the cleavage of the WT MazF-mt3 enzyme", "setting": "Figure 4A", "value": 15, "unit": "%"}]}
{"molecule": "B1", "values": [{"measurement": "suppression of the cleavage activity of MazF-mt3", "setting": "20 mM Tris-HCl pH 8.0, 150 mM NaCl, urea-PAGE, Figure S8", "value": "fully suppress"}]}
